Consider 26 compounds from patent US11964938B2, “3-phenyl-4-hexynoic acid derivatives as GPR40 agonists” (CELON PHARMA S.A., priority 2018, dated 2024).

One data set deals with T1, human GPR40 receptor (Homo sapiens, UniProt O14842).
T1 construct: host or cells: CHO-K1 (co-expressing aequorin)
As to the kind of experiment: Analysis of receptor activation - calcium ions concentration measurement (aequorin luminescence). It is filed as cell-based. The conditions noted are these: enhancement or decrease of activity in relation to reference TAK-875, from EC50 values. From the text: Experiment B1: Analysis of Receptor Activation—Calcium Ions Concentration Measurement.
As a result of the measurement, luminescence change in the time curve were obtained, the integration of which allowed to calculate the relative amount of calcium ions released to cytosol. […] Curves plotted from obtained results allowed to determine EC50 values.

The test system of data set [1] is Wistar HAN Crl:WI (HAN) rats. Description: Glucose tolerance test in vivo on rats. More on the design: species or system rat. The following applies: 10 mg/kg oral single dose, blood; for AUC for glucose (0-540 min.): i.p. glucose bolus at t=0 and 6 h; for AUC for insulin (0-180 min.): i.p. glucose bolus. The method, then:
Experiment B3: Glucose Tolerance Test In Vivo on Rats.
To evaluate glucose lowering effect of the compounds in in vivo study, glucose tolerance test (GTT) was performed. The study was performed on male outbred Wistar HAN Crl:WI (HAN) rats from Charles River, weight about 250-300 g, 8-10 weeks old. Rats were starved for 12 hours (with free access to water).
At time point t=0 animals were given orally a single dose of a compound (by a gastric tube) and immediately (t=0) and after 6 hour (t=6 h) intraperitoneal (i.p.) glucose bolus ([…]). At time points t=0 (just before oral administration of the compounds and intraperitoneal glucose administration), 0.25, 0.5, 1, 2, 2.5, 3, 6, 6.25, 7, 8, and 9 h blood samples from tail vein were collected from each animal for glucose level determination using Accu-chek glucometer (Roche Diagnostics) and additionally at t=0.25, 0.5, 1, 2, 2.5, and 3 h blood samples from tail vein were collected for insulin level measurement using ELISA test (Mercodia).
Tested compound were prepared in 5% DMSO/40% PEG300/55% PBS vehicle and administered at the dose of 10 mg/kg body weight in a volume of 0.5 ml/100 g body weight. After 4 hours after tested compound administration animals were given standard diet to the cages. Decrease of AUC value for glucose level in blood was calculated and the results for selected compounds of the invention are presented in Table 5. Analysis was performed using GraphPad prism software.

Data set [2] deals with MIN6 (mouse insulinoma) cells. As to the kind of experiment: Glucose-dependent insulin release in mouse insulinoma cells (MIN6). The following applies: multiplicity of insulin efflux increase in relation to control; 10 uM compound, 20 mM glucose, 1 hour. It is filed as cell-based. The method, then: Experiment B2: Glucose-Dependent Insulin Release in Mouse Insulinoma Cells (MIN6).
MIN6 (mouse insulinoma) cells were seeded on a plate covered with PDL (poly-D-lysine) at 5×10^5/well and cultured for 48 hours. […] Tested compounds, after dilution to the concentration of 10-40 uM in KRBH buffer with the addition of 20 mM glucose, were added to the cells and incubated for 1 hour to induce insulin release. Negative control was KRBH buffer with the addition of 2 mM glucose. Concentration of released insulin was determined using ELISA test (Mercodia).
Table 4 present MIN6Insulin @10 uM values for representative compounds of the invention. MIN6Insulin @10 uM value is a multiplicity of insulin efflux increase in relation to control experiment, following addition of 10 uM of tested compound.

The conditions of data set [3]: I phase of clinical trials; cited from earlier work.
For data set [4], the system named is diabetes STZ-treated mice. Description: Von Frey test on diabetes STZ-treated mice (tactile allodynia). The format is in vivo, mouse. The conditions noted are these: 60 minutes after administration, mean of group. The method, then: Experiment B5: Von Frey Test on Diabetes STZ-Treated Mice.
Tactile allodynia was assessed by electronic von Frey apparatus (Bioseb) equipped with a flexible filament. Reaction to stimuli was assessed using growing applied pressure (from 0 to 10 g) on a plantar side of the hind foot of mice. Pregabalin was a control, as reference healthy mice with preserved normal response to the stimuli were used. In the day of the experiment, mice were placed separately in cages with a wire mesh bottom for 1 h for habituation to experimental conditions. After habituation period, each mouse was treated 3 times alternately, with 30 s intervals between each measurement, to obtain starting values (before administration of the compound) of pain sensitivity. […] The results are presented in Table 7 as mean value for all mice in a given group (n=7-10).

One may read the melting point as the temperature, or range, at which the solid turns liquid.

T1 sequence (O14842 whole entry): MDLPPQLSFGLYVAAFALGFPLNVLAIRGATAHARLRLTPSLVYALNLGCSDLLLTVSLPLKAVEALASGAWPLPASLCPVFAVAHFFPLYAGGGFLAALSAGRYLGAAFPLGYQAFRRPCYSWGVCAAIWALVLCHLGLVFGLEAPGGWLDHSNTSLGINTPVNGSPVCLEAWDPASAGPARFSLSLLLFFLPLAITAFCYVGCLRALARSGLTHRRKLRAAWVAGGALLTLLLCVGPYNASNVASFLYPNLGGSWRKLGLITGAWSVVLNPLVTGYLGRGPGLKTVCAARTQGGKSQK

For `CC#C[C@@H](CC(=O)O)c1ccc(OC(C)C(C)C)cc1` (mixture of isomers) [Example F13, (3S)-3-(4-{[(2R/S)-3-methylbutan-2-yl]oxy}phenyl)hex-4-ynoic acid], the “% PTAK-875” value on human GPR40 receptor is listed as “A (>120% PTAK-875)”.

As to `CC#C[C@@H](CC(=O)O)c1ccc(OCC(C)C(C)C)cc1` (mixture of isomers) [Example F37, (3S)-3-{4-[(2R/S)-2,3-dimethylbutoxy]phenyl}hex-4-ynoic acid], the “% PTAK-875” value at human GPR40 receptor is on record as “A (>120% PTAK-875)”.

On to `CC#C[C@@H](CC(=O)O)c1ccc(OCCC(C)CC)cc1` (mixture of isomers) [Example F38, (3S)-3-(4-{[(3R/S)-3-methylpentyl]oxy}phenyl)hex-4-ynoic acid], for which the “% PTAK-875” value at human GPR40 receptor is given as “B (81-120% PTAK-875)”.

As to `CC#CC(CC(=O)O)c1ccc(OC/C=C(\C)CC/C=C(\C)CCC=C(C)C)cc1` (racemic) [Example F11, (3R/S)-3-(4-{[(2E,6E)-3,7,11-trimethyldodeca-2,6,10-trien-1-yl]oxy}-phenyl)hex-4-ynoic acid], at human GPR40 receptor, the “% PTAK-875” value is “D (21-50% PTAK-875)”.

With `CC#CC(CC(=O)O)c1ccc(OCC(C)(C)C)cc1` (racemic) [Example F26, (3R/S)-3-[4-(2,2-dimethylpropoxy)phenyl]hex-4-ynoic acid], the “% PTAK-875” value on human GPR40 receptor is reported as “E (<20% PTAK-875)”.

On to `CC#C[C@@H](CC(=O)O)c1ccc(OCCC)cc1` [Example F1, (3S)-3-(4-propoxyphenyl)hex-4-ynoic acid], for which the “% PTAK-875” value on human GPR40 receptor was “D (21-50% PTAK-875)”.

In the case of `CC#C[C@@H](CC(=O)O)c1ccc(OCCCC)cc1` [Example F2, (3S)-3-(4-butoxyphenyl)hex-4-ynoic acid], the “% PTAK-875” value at human GPR40 receptor was “A (>120% PTAK-875)”.

For `CC#C[C@@H](CC(=O)O)c1ccc(OCCCCCC)cc1` [Example F4, (3S)-3-[4-(hexyloxy)phenyl]hex-4-ynoic acid], the “% PTAK-875” value on human GPR40 receptor was “A (>120% PTAK-875)”.

For `CC#C[C@@H](CC(=O)O)c1ccc(OCCCCCCC)cc1` [Example F5, (3S)-3-[4-(heptyloxy)phenyl]hex-4-ynoic acid], on human GPR40 receptor, the “% PTAK-875” value is listed as “A (>120% PTAK-875)”.

Regarding `CC#C[C@@H](CC(=O)O)c1ccc(OC/C=C(\C)CCC=C(C)C)cc1` [Example F6, (3S)-3-(4-{[(2E)-3,7-dimethylocta-2,6-dien-1-yl]oxy}phenyl)hex-4-ynoic acid], in data set [1], the “AUC for glucose (0-540 min.)” value came to 25184.1 and the “AUC for insulin (0-180 min.)” value amounted to 492.5.

Take `CC#C[C@@H](CC(=O)O)c1ccc(OC(CC)CC)cc1` [Example F17, (3S)-3-[4-(pentan-3-yloxy)phenyl]hex-4-ynoic acid]: the “% PTAK-875” value on human GPR40 receptor is reported as “E (<20% PTAK-875)”.

For the compound `CC#C[C@@H](CC(=O)O)c1ccc(OC/C=C/CCC)cc1` [Example F18, (3S)-3-{4-[(2E)-hex-2-en-1-yloxy]phenyl}hex-4-ynoic acid], on human GPR40 receptor, the “% PTAK-875” value is listed as “A (>120% PTAK-875)”.

In the case of `CC#C[C@@H](CC(=O)O)c1ccc(OC/C=C/C=C/C)cc1` [Example F19, (3S)-3-{4-[(2E,4E)-hexa-2,4-dien-1-yloxy]phenyl}hex-4-ynoic acid], the “% PTAK-875” value on human GPR40 receptor is “A (>120% PTAK-875)”.

As for `C=CCCCOc1ccc([C@@H](C#CC)CC(=O)O)cc1` [Example F20, (3S)-3-[4-(pent-4-en-1-yloxy)phenyl]hex-4-ynoic acid], on human GPR40 receptor, the “% PTAK-875” value is on record as “B (81-120% PTAK-875)”.

Consider `CC#CCCOc1ccc([C@@H](C#CC)CC(=O)O)cc1` [Example F21, (3S)-3-[4-(pent-3-yn-1-yloxy)phenyl]hex-4-ynoic acid], for which the “% PTAK-875” value on human GPR40 receptor is recorded as “C (51-80% PTAK-875)”.

In the case of `CC#C[C@@H](CC(=O)O)c1ccc(OCC#CCC)cc1` [Example F22, (3S)-3-[4-(pent-2-yn-1-yloxy)phenyl]hex-4-ynoic acid], at human GPR40 receptor, the “% PTAK-875” value is given as “C (51-80% PTAK-875)”.

Consider `CC#C[C@@H](CC(=O)O)c1ccc(OCCC(C)C)cc1` [Example F24, (3S)-3-[4-(3-methylbutoxy)phenyl]hex-4-ynoic acid], for which the melting point lay within 26.4 to 27.1 °C. Also, in data set [1], the “AUC for glucose (0-540 min.)” value stood at 24289.7 and the “AUC for insulin (0-180 min.)” value is listed as 329.0. In addition, the “MIN6Insulin @10 uM” value in data set [2] was 2.627.

Take `CC#C[C@@H](CC(=O)O)c1ccc(OCCC(C)(C)C)cc1` [Example F27, (3S)-3-[4-(3,3-dimethylbutoxy)phenyl]hex-4-ynoic acid]: on human GPR40 receptor, the “% PTAK-875” value is recorded as “D (21-50% PTAK-875)”.

In turn, `CC#C[C@@H](CC(=O)O)c1ccc(OCC=C(C)C)cc1` [Example F28, (3S)-3-{4[(3-methylbut-2-en-1-yl)oxy]phenyl}hex-4-ynoic acid] gave a melting point of 52.1 to 53.1 °C. Further, in data set [1], the “AUC for glucose (0-540 min.)” value is 28377.4 and the “AUC for insulin (0-180 min.)” value is on record as 499.2. Besides, in data set [2], the “MIN6Insulin @10 uM” value was 2.782.

`C=C(C)CCOc1ccc([C@@H](C#CC)CC(=O)O)cc1` [Example F30, (3S)-3-{4[(3-methylbut-3-en-1-yl)oxy]phenyl}hex-4-ynoic acid]: the “% PTAK-875” value on human GPR40 receptor is reported as “A (>120% PTAK-875)”.

For the compound `CC#C[C@@H](CC(=O)O)c1ccc(OCC(C)=C(C)C)cc1` [Example F33, (3S)-3-{4-[(2,3-dimethylbut-2-en-1-yl)oxy]phenyl}hex-4-ynoic acid], in data set [1], the “AUC for glucose (0-540 min.)” value worked out at 19393.1 and the “AUC for insulin (0-180 min.)” value was determined as 519.1. Moreover, the “MIN6Insulin @10 uM” value in data set [2] is reported as 3.895.

Turning to `C=C(C)/C=C/COc1ccc([C@@H](C#CC)CC(=O)O)cc1` [Example F34, (3S)-3-(4-{[(2E)-4-methylpenta-2,4-dien-1-yl]oxy}phenyl)hex-4-ynoic acid], the melting point was 94.7 to 95.7 °C. The “% PTAK-875” value on human GPR40 receptor is recorded as “A (>120% PTAK-875)”.

As for `CC#C[C@@H](CC(=O)O)c1ccc(OCCCC(F)(F)F)cc1` [Example F39, (3S)-3-[4-(4,4,4-trifluorobutoxy)phenyl]hex-4-ynoic acid], the “% PTAK-875” value on human GPR40 receptor was “B (81-120% PTAK-875)”.

Regarding `CC#C[C@@H](CC(=O)O)c1ccc(OCCCCC(F)(F)F)cc1` [Example F40, (3S)-3-{4[(5,5,5-trifluoropentyl)oxy]phenyl}hex-4-ynoic acid], the “% PTAK-875” value at human GPR40 receptor was “B (81-120% PTAK-875)”.

Turning to `CC#C[C@@H](CC(=O)O)c1ccc(OCc2cccc(-c3ccc(C(F)(F)F)cc3)c2)cc1` [Example R2, (3S)-3-[4-({3-[4-(trifluoromethyl)phenyl]phenyl}methoxy)phenyl]-hex-4-ynoic acid, reference compound], in data set [2], the “MIN6Insulin @10 uM” value is reported as 1.567. Also, the insulin plasma level result in data set [3] is listed as “enhanced insulin plasma level”.

With `CC(C)C[C@H](CN)CC(=O)O` [Pregabalin, reference compound], the “Applied pressure causing the response, sick animal (neuropathic) after compound administration” value was determined as 2.04 g in data set [4] (3 mg/kg p.o.), 2.65 g in data set [4] (10 mg/kg p.o.) and 4.11 g in data set [4] (30 mg/kg p.o.).
